Assay results: ChEMBL document CHEMBL1938312, “Design and combinatorial synthesis of a novel kinase-focused library using click chemistry-based fragment assembly” (Bioorg Med Chem Lett, 2012)
The source made the active and inactive calls. The rule behind the calls is not given here.

What was measured:
[1] = target: Epidermal growth factor receptor (Homo sapiens) (UniProt P00533); experiment: Inhibition of EGFR at 10 uM by colorimetric analysis
[2] = target: Receptor-type tyrosine-protein kinase FLT3 (Homo sapiens) (UniProt P36888); experiment: Inhibition of FLT3 at 10 uM by colorimetric analysis
Chain of Receptor-type tyrosine-protein kinase FLT3 (Homo sapiens) (P36888 whole entry): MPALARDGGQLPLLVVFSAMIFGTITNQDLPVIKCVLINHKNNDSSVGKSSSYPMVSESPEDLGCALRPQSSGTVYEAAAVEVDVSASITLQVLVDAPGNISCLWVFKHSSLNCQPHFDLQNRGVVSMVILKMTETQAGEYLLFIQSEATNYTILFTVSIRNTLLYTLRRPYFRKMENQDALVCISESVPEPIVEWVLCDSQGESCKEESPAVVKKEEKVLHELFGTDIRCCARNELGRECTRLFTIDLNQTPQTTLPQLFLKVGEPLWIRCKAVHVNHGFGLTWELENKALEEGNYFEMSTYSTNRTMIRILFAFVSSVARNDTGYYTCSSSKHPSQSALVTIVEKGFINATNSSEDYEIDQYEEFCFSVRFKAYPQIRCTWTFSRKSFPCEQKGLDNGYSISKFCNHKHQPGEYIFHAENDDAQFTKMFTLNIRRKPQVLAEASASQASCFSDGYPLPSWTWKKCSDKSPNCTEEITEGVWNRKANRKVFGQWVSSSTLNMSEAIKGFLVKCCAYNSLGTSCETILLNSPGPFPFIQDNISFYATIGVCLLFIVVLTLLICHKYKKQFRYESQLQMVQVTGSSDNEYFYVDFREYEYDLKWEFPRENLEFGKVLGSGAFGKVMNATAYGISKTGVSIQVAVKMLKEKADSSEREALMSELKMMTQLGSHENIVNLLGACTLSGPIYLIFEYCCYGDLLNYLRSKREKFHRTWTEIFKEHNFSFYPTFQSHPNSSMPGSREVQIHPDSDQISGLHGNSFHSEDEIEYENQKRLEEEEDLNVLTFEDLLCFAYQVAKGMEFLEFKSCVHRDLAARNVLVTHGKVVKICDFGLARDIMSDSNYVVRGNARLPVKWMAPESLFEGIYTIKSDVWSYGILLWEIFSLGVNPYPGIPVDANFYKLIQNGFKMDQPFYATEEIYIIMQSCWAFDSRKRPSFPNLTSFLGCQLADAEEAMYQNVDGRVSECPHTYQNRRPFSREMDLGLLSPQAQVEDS

[3] = target: T1, Tyrosine-protein kinase ITK/TSK (Homo sapiens) (UniProt Q08881); experiment: Inhibition of ITK at 10 uM by colorimetric analysis
T1 sequence (whole entry): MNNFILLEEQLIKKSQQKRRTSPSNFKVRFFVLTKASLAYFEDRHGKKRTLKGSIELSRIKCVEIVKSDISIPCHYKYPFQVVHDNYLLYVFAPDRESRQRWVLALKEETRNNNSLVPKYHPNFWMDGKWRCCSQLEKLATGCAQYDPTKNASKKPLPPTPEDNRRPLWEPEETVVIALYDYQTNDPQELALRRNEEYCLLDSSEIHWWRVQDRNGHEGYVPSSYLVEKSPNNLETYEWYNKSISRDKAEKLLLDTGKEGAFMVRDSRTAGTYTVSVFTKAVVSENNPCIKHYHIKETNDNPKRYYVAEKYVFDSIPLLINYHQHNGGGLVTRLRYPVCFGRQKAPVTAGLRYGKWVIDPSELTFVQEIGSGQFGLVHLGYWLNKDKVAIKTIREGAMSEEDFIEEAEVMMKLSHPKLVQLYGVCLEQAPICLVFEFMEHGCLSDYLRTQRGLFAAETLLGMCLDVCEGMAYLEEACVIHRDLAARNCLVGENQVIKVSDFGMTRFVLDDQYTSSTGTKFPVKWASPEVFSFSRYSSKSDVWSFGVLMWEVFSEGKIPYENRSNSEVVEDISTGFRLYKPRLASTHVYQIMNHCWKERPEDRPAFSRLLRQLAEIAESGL

[4] = target: T2, Tyrosine-protein kinase receptor TYRO3 (Homo sapiens) (UniProt Q06418); experiment: Inhibition of TYRO3 at 10 uM by colorimetric analysis
T2 sequence (whole entry): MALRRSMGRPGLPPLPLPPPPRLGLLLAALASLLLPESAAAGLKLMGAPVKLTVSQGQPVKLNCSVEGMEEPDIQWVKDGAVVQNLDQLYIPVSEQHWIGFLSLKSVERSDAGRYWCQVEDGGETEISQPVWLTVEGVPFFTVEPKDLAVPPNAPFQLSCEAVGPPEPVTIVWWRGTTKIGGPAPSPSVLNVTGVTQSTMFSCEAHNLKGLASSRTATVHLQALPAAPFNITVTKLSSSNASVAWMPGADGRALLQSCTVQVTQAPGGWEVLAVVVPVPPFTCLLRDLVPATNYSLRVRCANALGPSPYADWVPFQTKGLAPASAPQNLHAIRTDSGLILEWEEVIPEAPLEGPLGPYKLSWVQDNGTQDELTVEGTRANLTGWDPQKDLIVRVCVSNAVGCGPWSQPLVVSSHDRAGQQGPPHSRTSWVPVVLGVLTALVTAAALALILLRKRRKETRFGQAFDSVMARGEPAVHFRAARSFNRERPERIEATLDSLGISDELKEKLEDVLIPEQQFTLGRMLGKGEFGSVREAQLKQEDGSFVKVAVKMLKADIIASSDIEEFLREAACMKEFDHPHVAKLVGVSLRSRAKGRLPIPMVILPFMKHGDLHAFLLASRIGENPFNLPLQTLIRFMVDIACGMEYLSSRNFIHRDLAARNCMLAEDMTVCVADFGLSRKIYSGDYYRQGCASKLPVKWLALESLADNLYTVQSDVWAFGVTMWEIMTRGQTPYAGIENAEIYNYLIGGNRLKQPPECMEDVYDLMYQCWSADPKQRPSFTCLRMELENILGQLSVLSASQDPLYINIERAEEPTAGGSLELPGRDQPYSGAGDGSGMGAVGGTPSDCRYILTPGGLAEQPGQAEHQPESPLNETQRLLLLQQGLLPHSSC

[5] = target: Dual specificity tyrosine-phosphorylation-regulated kinase 1B (Homo sapiens) (UniProt Q9Y463); experiment: Inhibition of DYRK1B at 10 uM by colorimetric analysis
Chain of Dual specificity tyrosine-phosphorylation-regulated kinase 1B (Homo sapiens) (Q9Y463 whole entry, looked up): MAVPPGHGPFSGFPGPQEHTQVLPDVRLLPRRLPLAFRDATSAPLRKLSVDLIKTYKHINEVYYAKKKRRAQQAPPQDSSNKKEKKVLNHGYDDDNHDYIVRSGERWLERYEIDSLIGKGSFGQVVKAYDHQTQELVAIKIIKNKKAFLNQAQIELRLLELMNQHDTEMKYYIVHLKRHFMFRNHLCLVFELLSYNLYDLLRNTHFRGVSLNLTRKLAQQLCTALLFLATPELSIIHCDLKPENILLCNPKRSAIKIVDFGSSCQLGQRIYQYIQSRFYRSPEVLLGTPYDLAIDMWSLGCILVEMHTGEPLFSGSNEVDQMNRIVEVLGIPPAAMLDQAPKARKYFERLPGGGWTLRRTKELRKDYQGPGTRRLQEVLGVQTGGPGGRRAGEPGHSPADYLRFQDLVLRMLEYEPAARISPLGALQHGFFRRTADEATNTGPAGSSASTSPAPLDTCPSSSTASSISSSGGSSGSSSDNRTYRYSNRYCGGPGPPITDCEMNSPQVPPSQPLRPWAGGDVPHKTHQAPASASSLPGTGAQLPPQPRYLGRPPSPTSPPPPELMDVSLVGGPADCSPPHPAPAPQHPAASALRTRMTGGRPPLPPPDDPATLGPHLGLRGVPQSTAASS

[6] = target: T3, Inhibitor of nuclear factor kappa-B kinase subunit beta (Homo sapiens) (UniProt O14920); experiment: Inhibition of IKK-beta at 10 uM by colorimetric analysis
T3 sequence (whole entry): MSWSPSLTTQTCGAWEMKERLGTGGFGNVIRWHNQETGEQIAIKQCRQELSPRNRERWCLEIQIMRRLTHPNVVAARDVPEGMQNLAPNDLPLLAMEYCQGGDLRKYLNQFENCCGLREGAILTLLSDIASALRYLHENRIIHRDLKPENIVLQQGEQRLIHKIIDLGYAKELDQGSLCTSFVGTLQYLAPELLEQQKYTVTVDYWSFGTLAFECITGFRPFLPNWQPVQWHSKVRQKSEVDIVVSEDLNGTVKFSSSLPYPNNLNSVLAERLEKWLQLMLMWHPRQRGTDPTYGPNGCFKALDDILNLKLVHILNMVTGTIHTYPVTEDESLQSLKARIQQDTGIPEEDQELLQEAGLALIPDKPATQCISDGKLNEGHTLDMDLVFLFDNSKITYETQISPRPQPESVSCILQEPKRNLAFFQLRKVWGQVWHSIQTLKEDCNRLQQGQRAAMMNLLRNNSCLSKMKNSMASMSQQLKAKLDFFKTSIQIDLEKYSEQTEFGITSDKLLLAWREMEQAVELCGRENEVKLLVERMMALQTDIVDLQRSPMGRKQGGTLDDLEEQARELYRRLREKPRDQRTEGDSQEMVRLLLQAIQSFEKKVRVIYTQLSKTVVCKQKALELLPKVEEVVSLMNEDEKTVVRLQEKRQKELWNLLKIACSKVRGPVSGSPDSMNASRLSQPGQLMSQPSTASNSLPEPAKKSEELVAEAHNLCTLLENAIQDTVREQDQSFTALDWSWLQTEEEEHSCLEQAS

[7] = target: T4, Serine/threonine-protein kinase Nek2 (Homo sapiens) (UniProt P51955); experiment: Inhibition of NEK2 at 10 uM by colorimetric analysis
T4 sequence (whole entry): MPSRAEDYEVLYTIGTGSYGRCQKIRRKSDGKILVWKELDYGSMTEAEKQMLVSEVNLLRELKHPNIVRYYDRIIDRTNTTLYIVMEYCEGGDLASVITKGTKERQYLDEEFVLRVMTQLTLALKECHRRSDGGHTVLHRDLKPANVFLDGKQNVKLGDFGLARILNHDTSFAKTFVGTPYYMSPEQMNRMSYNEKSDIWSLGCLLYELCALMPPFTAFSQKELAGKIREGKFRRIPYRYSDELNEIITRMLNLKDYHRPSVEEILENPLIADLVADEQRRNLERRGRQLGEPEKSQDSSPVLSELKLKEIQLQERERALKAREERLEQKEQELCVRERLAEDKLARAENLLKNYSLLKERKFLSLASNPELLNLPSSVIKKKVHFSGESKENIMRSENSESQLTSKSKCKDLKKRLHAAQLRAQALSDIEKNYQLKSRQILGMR

Chain of Epidermal growth factor receptor (Homo sapiens) (P00533 whole entry): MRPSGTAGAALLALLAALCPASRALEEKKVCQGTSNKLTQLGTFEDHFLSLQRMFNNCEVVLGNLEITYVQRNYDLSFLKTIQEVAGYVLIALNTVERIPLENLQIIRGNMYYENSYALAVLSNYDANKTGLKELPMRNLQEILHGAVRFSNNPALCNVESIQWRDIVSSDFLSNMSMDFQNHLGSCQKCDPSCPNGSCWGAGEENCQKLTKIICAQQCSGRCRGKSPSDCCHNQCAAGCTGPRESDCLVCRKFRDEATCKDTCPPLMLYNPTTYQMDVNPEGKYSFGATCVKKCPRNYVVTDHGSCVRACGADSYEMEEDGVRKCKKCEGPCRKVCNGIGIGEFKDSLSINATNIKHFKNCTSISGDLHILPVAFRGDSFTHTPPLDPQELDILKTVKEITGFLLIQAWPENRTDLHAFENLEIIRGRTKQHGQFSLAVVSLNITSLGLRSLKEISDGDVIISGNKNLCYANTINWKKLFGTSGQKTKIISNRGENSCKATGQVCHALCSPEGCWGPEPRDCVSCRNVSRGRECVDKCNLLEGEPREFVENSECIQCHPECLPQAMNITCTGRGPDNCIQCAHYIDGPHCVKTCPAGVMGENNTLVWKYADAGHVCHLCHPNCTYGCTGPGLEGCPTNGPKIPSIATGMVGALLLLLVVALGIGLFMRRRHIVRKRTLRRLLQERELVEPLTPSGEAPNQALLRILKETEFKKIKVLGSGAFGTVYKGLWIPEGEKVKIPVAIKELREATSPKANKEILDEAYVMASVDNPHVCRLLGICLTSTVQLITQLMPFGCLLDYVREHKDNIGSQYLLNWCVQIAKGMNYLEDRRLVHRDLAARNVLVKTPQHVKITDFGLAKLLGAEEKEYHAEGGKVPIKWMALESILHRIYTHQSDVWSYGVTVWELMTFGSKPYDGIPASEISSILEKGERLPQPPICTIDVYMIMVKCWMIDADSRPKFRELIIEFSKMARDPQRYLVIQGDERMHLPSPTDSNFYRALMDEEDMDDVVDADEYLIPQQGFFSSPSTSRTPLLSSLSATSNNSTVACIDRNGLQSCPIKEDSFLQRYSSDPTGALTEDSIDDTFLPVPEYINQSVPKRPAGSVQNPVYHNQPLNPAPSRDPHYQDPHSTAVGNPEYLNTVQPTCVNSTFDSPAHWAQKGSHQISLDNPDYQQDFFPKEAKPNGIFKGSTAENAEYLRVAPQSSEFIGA

Row | inhibition [1] | inhibition [2] | inhibition [3] | inhibition [4] | inhibition [5] | inhibition [6] | inhibition [7] | Compound
1 | inactive | Active | inactive | inactive | Active | Active | Active | Clc1cccc(-n2nncc2-c2ccncc2)c1
2 | inactive | Active | inactive | inactive | Active | Active | Active | Clc1ccc(-n2cc(-c3ccncc3)nn2)cc1
3 | inactive | Active | inactive | inactive | Active | Active | Active | Clc1ccc(-n2nncc2-c2ccncc2)cc1
4 | inactive | Active | inactive | inactive | Active | Active | Active | Clc1cccc(-n2cc(-c3ccncc3)nn2)c1
